For the assay, the target named is human TLR2 (Homo sapiens, UniProt O60603). Description: Reporter gene assay: HEK 293 cells stably transfected with human TLR2 and NF-kB-driven luciferase reporter. As to conditions: for Emax: HEK293, 7 h, read-out: Hek-TLR2 (% Eff); for EC50: Hek-TLR2 μM (EC50), HEK 293 stably transfected with human TLR2 and pNifty-Luciferase, 7 hours incubation, concentration giving 50% of maximal signal.

Drawing on patent publication US9365506B2, “Compounds and compositions as TLR2 agonists” (NOVARTIS AG, priority 2010, dated 2016), this text covers Emax and EC50 for 26 molecules.

The structures appear in SMILES notation.

human TLR2, sequence (O60603 21-784): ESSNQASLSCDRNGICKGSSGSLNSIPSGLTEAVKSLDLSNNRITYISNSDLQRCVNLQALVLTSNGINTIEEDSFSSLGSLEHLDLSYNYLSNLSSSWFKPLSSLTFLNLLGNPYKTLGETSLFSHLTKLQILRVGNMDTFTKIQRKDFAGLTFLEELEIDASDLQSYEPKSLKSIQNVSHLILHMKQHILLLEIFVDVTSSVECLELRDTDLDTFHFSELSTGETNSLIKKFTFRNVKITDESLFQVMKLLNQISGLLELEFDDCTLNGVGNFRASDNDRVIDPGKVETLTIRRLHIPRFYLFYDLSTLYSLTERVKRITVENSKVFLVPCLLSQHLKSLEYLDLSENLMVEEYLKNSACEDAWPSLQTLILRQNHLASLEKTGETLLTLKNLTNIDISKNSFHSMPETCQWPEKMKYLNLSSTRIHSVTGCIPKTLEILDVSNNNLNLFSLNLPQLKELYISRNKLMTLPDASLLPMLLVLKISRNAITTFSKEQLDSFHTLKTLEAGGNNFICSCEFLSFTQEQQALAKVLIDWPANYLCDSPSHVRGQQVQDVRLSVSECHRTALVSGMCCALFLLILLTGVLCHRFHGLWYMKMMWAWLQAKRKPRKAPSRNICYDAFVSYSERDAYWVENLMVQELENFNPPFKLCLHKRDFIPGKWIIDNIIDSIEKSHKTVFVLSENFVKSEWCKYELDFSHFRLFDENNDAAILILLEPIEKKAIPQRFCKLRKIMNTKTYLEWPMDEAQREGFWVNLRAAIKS
Experimental: As a control assay, normal Hek293 transfected with pNifty-Luc were used. […] Bright-Glo™ Luciferase assay buffer and substrate were supplied by Promega #E263B and #E264B (assay substrate and buffer respectively). 384 well clear-bottom plates were supplied by Greiner bio-one (#789163-G) and were custom bar-coded plates.
Cells were plated at 25,000 cells/well in 384-well plates in a final volume of 50 μl of media. Cells were allowed to adhere to the plates after overnight (18 hours) culture at 37° C. and 5% CO2. Serially diluted experimental and positive control compounds were then dispensed to each well and incubated for 7 hours at 37° C. and 5% CO2. Cells stimulated with DMSO alone also serve as negative controls. After the incubation, 30 μl of the pre-mix assay buffer and substrate buffer were added to each well according to manufacturer's instructions. The luminescence signal was read on a CLIPR machine with an integration time of 20 seconds per plate.

Consider `CCCCCCCCCCCCCCCC(=O)N[C@@H](CSC[C@@H](COC(=O)NCCCCCCCCCC)OC(=O)NCCCCCCCCCC)C(=O)NCCOCCOCCOCCP(=O)(O)O` [Example 39, (14R,18R)-18-(decylcarbamoyloxy)-13,21-dioxo-14-palmitamido-3,6,9,20-tetraoxa-16-thia-12,22-diazadotriacontylphosphonic acid], for which the Emax is 92% and the midpoint of the response, the EC50, lay at 2.64 µM.
`CCCCCCCCCCCCCCCC(=O)N[C@@H](CSC[C@@H](COC(=O)CCCCCCCCCCC)OC(=O)CCCCCCCCCCC)C(=O)NCCCOCCOCCOCCCNC(=O)CCC1OCCO1` [Example 40, (20R,24R)-1-(1,3-dioxolan-2-yl)-3,19-dioxo-20-palmitamido-8,11,14-trioxa-22-thia-4,18-diazapentacosane-24,25-diyl didodecanoate]: the Emax was 25% and it took 0.096 µM to reach a half-maximal effect (EC50).
The like results for `CCCCCCCCCCCC(=O)OC[C@H](CSC[C@H](N)C(=O)NCCc1ccc(OCCOCCO)cc1)OC(=O)CCCCCCCCCCC` [Example 41, (R)-3-(((R)-2-amino-3-((4-(2-(2-hydroxyethoxy)ethoxy)phenethyl)amino)-3-oxopropyl)thio)propane-1,2-diyl didodecanoate] were, in that order, 61% and 15.3 µM.
For `CCCCCCCCCCCC(=O)OC[C@H](CSC[C@H](N)C(=O)NCCCCCCCCCC(=O)O)OC(=O)CCCCCCCCCCC` [Example 42, 10-((R)-2-amino-3-(((R)-2,3-bis(dodecanoyloxy)propyl)thio)propanamido)decanoic acid] the same measures were 101% and 4.4 µM.
`CCCCCCCCCCCC(=O)OC[C@H](CSC[C@H](N)C(=O)NC(C)(C)CO)OC(=O)CCCCCCCCCCC` [Example 43, (R)-3-(((R)-2-amino-3-((1-hydroxy-2-methylpropan-2-yl)amino)-3-oxopropyl)thio)propane-1,2-diyl didodecanoate]: the Emax was determined as 54% and the EC50 turned out to be 15.5 µM.
For `CCCCCCCCCCCC(=O)OC[C@H](CSC[C@H](N)C(=O)NCCc1ccc(OCCC(C)C)cc1)OC(=O)CCCCCCCCCCC` [Example 44, (R)-3-(((R)-2-amino-3-((4-(isopentyloxy)phenethyl)amino)-3-oxopropyl)thio)propane-1,2-diyl didodecanoate] the same measures were 72% and 8.17 µM.
For `CCCCCCCCCCCC(=O)OC[C@H](CSC[C@H](N)C(=O)NCCc1cccc(O)c1)OC(=O)CCCCCCCCCCC` [Example 49, (R)-3-(((R)-2-amino-3-((3-hydroxyphenethyl)amino)-3-oxopropyl)thio)propane-1,2-diyl didodecanoate], the Emax is 51% and the EC50 is over 21 µM.
The like results for `CCCCCCCCCCCC(=O)OC[C@H](CSC[C@H](N)C(=O)NCCOCCOCCN)OC(=O)CCCCCCCCCCC` [Example 54, (11R,15R)-1,11-diamino-10-oxo-3,6-dioxa-13-thia-9-azahexadecane-15,16-diyl didodecanoate] were, in that order, 101% and 1.29 µM.
The like results for `CCCCCCCCCCCC(=O)OC[C@H](CSC[C@H](N)C(=O)NCCCCCCN)OC(=O)CCCCCCCCCCC` [Example 56, (R)-3-(((R)-2-amino-3-((6-aminohexyl)amino)-3-oxopropyl)thio)propane-1,2-diyl didodecanoate] were, in that order, 107% and 1.22 µM.
For `CCCCCCCCCCCC(=O)OC[C@H](CSC[C@H](N)C(=O)NCCCCN)OC(=O)CCCCCCCCCCC` [Example 57, (R)-3-(((R)-2-amino-3-((4-aminobutyl)amino)-3-oxopropyl)thio)propane-1,2-diyl didodecanoate] the same measures were 111% and 1.04 µM.
In the case of `CCCCCCCCCCCC(=O)OC[C@H](CSC[C@H](N)C(=O)NCCCN1CCOCC1)OC(=O)CCCCCCCCCCC` [Example 59, (R)-3-(((R)-2-amino-3-((3-morpholinopropyl)amino)-3-oxopropyl)thio)propane-1,2-diyl didodecanoate], the Emax amounted to 121% and it took 0.71 µM to reach a half-maximal effect (EC50).
On to `CCCCCCCCCCCC(=O)OC[C@H](CSC[C@H](N)C(=O)NCCCn1ccnc1)OC(=O)CCCCCCCCCCC` [Example 60, (R)-3-(((R)-3-((3-(1H-imidazol-1-yl)propyl)amino)-2-amino-3-oxopropyl)thio)propane-1,2-diyl didodecanoate], for which the Emax is 119% and the EC50 turned out to be 0.41 µM.
For `CCCCCCCCCCCC(=O)OC[C@H](CSC[C@H](N)C(=O)NC(CC)COC)OC(=O)CCCCCCCCCCC` (stereo partly drawn) [Example 63, (2R)-3-(((2R)-2-amino-3-((1-methoxybutan-2-yl)amino)-3-oxopropyl)thio)propane-1,2-diyl didodecanoate] the same measures were 96% and 0.0718 µM.
For `CCCCCCCCCCCC(=O)OC[C@H](CSC[C@H](N)C(=O)NCCCOCCOCCOCCCN)OC(=O)CCCCCCCCCCC` [Example 64, (16R,20R)-1,16-diamino-15-oxo-4,7,10-trioxa-18-thia-14-azahenicosane-20,21-diyl didodecanoate] the same measures were 124% and 0.498 µM.
For `CCCCCCCCCCCC(=O)OC[C@H](CSC[C@H](N)C(=O)NC(Cc1ccccc1)c1ccccc1)OC(=O)CCCCCCCCCCC` (stereo partly drawn) [Example 67, (2R)-3-(((2R)-2-amino-3-((1,2-diphenylethyl)amino)-3-oxopropyl)thio)propane-1,2-diyl didodecanoate], the Emax stood at 64% and it took 0.068 µM to reach a half-maximal effect (EC50).
The like results for `CCCCCCCCCCCC(=O)OC[C@H](CSC[C@H](N)C(=O)NCCc1ccc(Oc2ccccc2)cc1)OC(=O)CCCCCCCCCCC` [Example 68, (R)-3-(((R)-2-amino-3-oxo-3-((4-phenoxyphenethyl)amino)propyl)thio)propane-1,2-diyl didodecanoate] were, in that order, 77% and 4.08 µM.
The like results for `CCCCCCCCCCCC(=O)OC[C@H](CSC[C@H](N)C(=O)NC(C)CCCN(CC)CC)OC(=O)CCCCCCCCCCC` (stereo partly drawn) [Example 69, (2R)-3-(((2R)-2-amino-3-((5-(diethylamino)pentan-2-yl)amino)-3-oxopropyl)thio)propane-1,2-diyl didodecanoate] were, in that order, 118% and 0.257 µM.
On to `CCCCCCCCCCCC(=O)OC[C@H](CSC[C@H](N)C(=O)NCCCC(C)(C)CO)OC(=O)CCCCCCCCCCC` [Example 72, (R)-3-(((R)-2-amino-3-((5-hydroxy-4,4-dimethylpentyl)amino)-3-oxopropyl)thio)propane-1,2-diyl didodecanoate], for which the Emax came out at 49% and the midpoint of the response, the EC50, lay at 30.7 µM.
The like results for `CCCCCCCCCCCC(=O)OC[C@H](CSC[C@H](N)C(=O)NC(C)CCC(C)C)OC(=O)CCCCCCCCCCC` (stereo partly drawn) [Example 74, (2R)-3-(((2R)-2-amino-3-((5-methylhexan-2-yl)amino)-3-oxopropyl)thio)propane-1,2-diyl didodecanoate] were, in that order, 105% and 0.19 µM.
The like results for `CCCCCCCCCCCCCCCC(=O)N[C@@H](CSC[C@@H](COC(=O)CCCCCCCCCCC)OC(=O)CCCCCCCCCCC)C(=O)N[C@@H](C)C(=O)N[C@H](CCC(=O)O)C(N)=O` [Example 75, (4R,7S,10R,14R)-4-carbamoyl-14-(dodecanoyloxy)-7-methyl-6,9,17-trioxo-10-palmitamido-16-oxa-12-thia-5,8-diazaoctacosan-1-oic acid] were, in that order, 58% and 0.96 µM.
On to `CCCCCCCCCCCCCCCCOC[C@H](CSC[C@H](N)C(=O)NCCOCCOCCOCCP(=O)(O)O)OCCCCCCCCCCCCCCCC` [Example 76, ((14R,18R)-14-amino-18-(hexadecyloxy)-13-oxo-3,6,9,20-tetraoxa-16-thia-12-azahexatriacontyl)phosphonic acid], for which the Emax was 109% and a half-maximal response (EC50) required 3.45 µM.
The like results for `CCCCCCCCCCCC(=O)OC[C@H](CSC[C@H](N)C(=O)NCCOCCOCCOCCOCCP(=O)(O)O)OC(=O)CCCCCCCCCCC` [Example 77, ((17R,21R)-17-amino-21-(dodecanoyloxy)-16,24-dioxo-3,6,9,12,23-pentaoxa-19-thia-15-azapentatriacontyl)phosphonic acid] were, in that order, 100% and 0.038 µM.
On to `CCCCCCCCCCCCOC[C@H](CSC[C@H](N)C(=O)NCCOCCOCCOCCOCCP(=O)(O)O)OCCCCCCCCCCCC` [Example 78, ((17R,21R)-17-amino-21-(dodecyloxy)-16-oxo-3,6,9,12,23-pentaoxa-19-thia-15-azapentatriacontyl)phosphonic acid], for which the Emax amounted to 35% and the EC50 is 1.43 µM.
For `CCCCCCCCCCCCOC[C@H](CSC[C@H](N)C(=O)NCCOCCOCCOCCOCCP(=O)(O)O)NC(=O)CCCCCCCCCCC` [Example 79, ((17R,21R)-17-amino-21-dodecanamido-16-oxo-3,6,9,12,23-pentaoxa-19-thia-15-azapentatriacontyl)phosphonic acid] the same measures were 20% and 1.86 µM.
Regarding `CCCCCCCCCCCCOC[C@H](CSC[C@H](N)C(=O)N[C@@H](CO)C(=O)NCCOCCOCCP(=O)(O)O)OCCCCCCCCCCCC` [Example 80, ((11S,14R,18R)-14-amino-18-(dodecyloxy)-11-(hydroxymethyl)-10,13-dioxo-3,6,20-trioxa-16-thia-9,12-diazadotriacontyl)phosphonic acid], the Emax is 52% and the EC50 is 1.91 µM.
`CCCCCCCCCCCCOC[C@H](CSC[C@H](N)C(=O)N[C@@H](CO)C(=O)NCCOCCOCCP(=O)(O)O)NC(=O)CCCCCCCCCCC` [Example 81, ((11S,14R,18R)-14-amino-18-dodecanamido-11-(hydroxymethyl)-10,13-dioxo-3,6,20-trioxa-16-thia-9,12-diazadotriacontyl)phosphonic acid]: the Emax worked out at 30% and the EC50 is 1.97 µM.
